PMC3663048 (Journal of medicinal chemistry, 2011)
Substitutions are numbered along the chain they refer to. One block for each compound: values may come before it.

Tests used:
C22V Nek2 = target: T1, C22V Nek2 (Homo sapiens, UniProt P51955, C22V); assay: In vitro kinase assay with C22V Nek2; format: biochemical; details: C22V mutant
T1 sequence (P51955 1-445 C22V): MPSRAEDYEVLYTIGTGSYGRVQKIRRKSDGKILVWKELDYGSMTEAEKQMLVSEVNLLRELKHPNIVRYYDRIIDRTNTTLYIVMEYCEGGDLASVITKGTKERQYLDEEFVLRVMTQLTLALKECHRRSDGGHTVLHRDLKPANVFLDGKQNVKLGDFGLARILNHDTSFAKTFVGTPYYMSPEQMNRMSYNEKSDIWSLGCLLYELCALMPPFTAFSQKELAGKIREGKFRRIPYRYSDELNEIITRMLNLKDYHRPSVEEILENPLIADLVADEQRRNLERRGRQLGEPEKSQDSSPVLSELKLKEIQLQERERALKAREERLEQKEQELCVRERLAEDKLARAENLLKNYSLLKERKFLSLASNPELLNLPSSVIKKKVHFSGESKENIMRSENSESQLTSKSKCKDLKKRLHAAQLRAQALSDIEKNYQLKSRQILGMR

[1] = target: T2, WT Nek2 kinase domain (aa 1-271) (Homo sapiens, UniProt P51955); assay: Mass spectrometry-based covalent binding assay, WT Nek2 kinase domain; details: ten-fold molar excess of compound, physiological pH
T2 sequence (P51955 1-271): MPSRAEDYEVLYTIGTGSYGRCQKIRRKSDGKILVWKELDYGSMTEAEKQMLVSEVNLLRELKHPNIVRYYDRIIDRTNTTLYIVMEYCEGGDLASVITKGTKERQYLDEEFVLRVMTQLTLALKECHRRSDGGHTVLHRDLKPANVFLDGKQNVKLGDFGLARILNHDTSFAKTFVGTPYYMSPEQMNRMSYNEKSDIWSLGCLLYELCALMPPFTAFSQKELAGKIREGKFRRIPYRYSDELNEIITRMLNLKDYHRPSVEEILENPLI

Nek2 = target: T3, Nek2 (Homo sapiens, UniProt P51955); assay: In vitro kinase assay with WT Nek2; details: for Potency against WT Nek2 (dose-response): WT Nek2, in vitro kinase assay; for inhibition at 5 µM: read-out: Percent inhibition of Nek2 kinase activity; for Percent inhibition of Nek2 kinase activity: 5 μM, 30 min pre-incubation
T3 sequence (P51955 1-445): T1 sequence (P51955 1-445 C22V) with V22C

[2] = system: monastrol-arrested A549 cells; assay: Mitotic exit of monastrol-arrested A549 cells; format: cell-based, human; details: 45 min; for Phospho-Ser10 histone H3 staining (mitotic marker): 5 μM
endogenous Nek2 = target: T4, endogenous Nek2 (Homo sapiens, UniProt P51955); assay: Immunoprecipitation kinase assay of endogenous Nek2 from treated A549 cells; format: cell-based; details: A549, read-out: Inhibition of cellular Nek2
T4 sequence (P51955 1-445): T1 sequence (P51955 1-445 C22V) with V22C

SMILES: CCc1nc(C)c(/C=C2\C(=O)Nc3ccc(C(=O)CCl)cc32)[nH]1 [compound 11, (Z)-5-(2-Chloroacetyl)-3-((2-ethyl-4-methyl-1H-imidazol-5-yl)methylene)indolin-2-one]
Alkylation of WT Nek2 kinase domain (ESI-MS) [1]: reacted stoichiometrically

SMILES: C#CC(=O)Nc1ccc2c(c1)/C(=C/c1[nH]cnc1C)C(=O)N2 [compound 15, (Z)-N-(3-((4-Methyl-1H-imidazol-5-yl)methylene)-2-oxoindolin-5-yl)propiolamide]
Phospho-Ser10 histone H3 staining (mitotic marker) [2]: devoid of this mitotic marker
% mitotic exit (5 μM) ([2]; immunofluorescence): 80%

SMILES: CC#CC(=O)Nc1ccc2c(c1)/C(=C/c1[nH]c(CC)nc1C)C(=O)N2 [compound 18, (Z)-N-(3-((2-Ethyl-4-methyl-1H-imidazol-5-yl)methylene)-2-oxoindolin-5-yl)but-2-ynamide]
inhibition at 5 µM (endogenous Nek2): 10 to 25%
IC50 (Nek2): ~20 µM

SMILES: O=C1NC(=NCc2cccs2)S/C1=C\c1ccc2ncccc2c1 [compound 19, reference compound]
Phospho-Ser10 histone H3 staining (mitotic marker) [2]: devoid of this mitotic marker

The remaining lines, values ahead:

Potency against C22V Nek2 compared to WT (C22V Nek2): significantly less potent
Alkylation of WT Nek2 kinase domain (ESI-MS) [1]: alkylated WT Nek2 at a single site
Potency against WT Nek2 (dose-response) (Nek2): submicromolar
inhibition at 5 µM (Nek2): > 80%
SMILES: O=C1Nc2ccc(C(=O)CCl)cc2/C1=C/c1ccc[nH]1 [compound 2, (Z)-3-((1H-Pyrrol-2-yl)methylene)-5-(2-chloroacetyl)indolin-2-one]

Percent inhibition of Nek2 kinase activity (Nek2): ineffective
SMILES: C=CC(=O)Nc1ccc2c(c1)/C(=C/c1ccc[nH]1)C(=O)N2 [compound 7, (Z)-N-(3-((1H-Pyrrol-2-yl)methylene)-2-oxoindolin-5-yl)acrylamide]

Potency against C22V Nek2 compared to WT (C22V Nek2): significantly less potent
Alkylation of WT Nek2 kinase domain (ESI-MS) [1]: alkylated WT Nek2 at a single site
Percent inhibition of Nek2 kinase activity (Nek2): nearly complete inhibition
Potency against WT Nek2 (dose-response) (Nek2): submicromolar
inhibition at 5 µM (Nek2): > 80%
SMILES: C#CC(=O)Nc1ccc2c(c1)/C(=C/c1ccc[nH]1)C(=O)N2 [compound 8, (Z)-N-(3-((1H-Pyrrol-2-yl)methylene)-2-oxoindolin-5-yl)propiolamide]
